Where two headings read alike, the source gives them in different places.
Legend:
HCV replicon cells = experiment: HCV replicon FRET assay; assay type: cell-based; conditions: HCV replicon cells, FRET assay, read-out: EC50
Excerpt: FRET Assay Preparation. To perform the HCV FRET screening assay, 96-well cell culture plates were used. The FRET peptide (Anaspec, Inc.) (Taliani et al., Anal. Biochem. 1996, 240, 60-67) contains a fluorescence donor, EDANS, near one end of the peptide and an acceptor, DABCYL, near the other end. The fluorescence of the peptide is quenched by […] resonance energy transfer (RET) between the donor and the acceptor, but as the NS3 protease cleaves the peptide the products are released from RET quenching and the fluorescence of the donor becomes apparent. The assay reagent was made as follows: 5× cell Luciferase cell culture lysis reagent from Promega (#E153A) diluted to 1× with dH2O, NaCl added to 150 mM final, the FRET peptide diluted to 20 uM final from a 2 mM stock.
To prepare plates, HCV replicon cells, with or without a Renilla luciferase reporter gene, were trypsinized and placed into each well of a 96-well plate with titrated test compounds added in columns 3 through 12; columns 1 and 2 contained a control compound (HCV protease inhibitor), and the bottom row contained cells without compound. The plates were then placed in a CO2 incubator at 37° C.
Assays. Subsequent to addition of the test compounds described above (FRET Assay Preparation), at various times the plate was removed and Alamar blue solution (Trek Diagnostics, #00-100) was added per well as a measure of cellular toxicity. After reading in a Cytoflour 4000 instrument (PE Biosystems), plates were rinsed with PBS and then used for FRET assay by the addition of 30 ul of the FRET peptide assay reagent described above (FRET Assay Preparation) per well. The plate was then placed into the Cytoflour 4000 instrument which had been set to 340 excite/490 emission, automatic mode for 20 cycles and the plate read in a kinetic mode. Typically, the signal to noise using an endpoint analysis after the reads was at least three-fold. Alternatively, after Alamar blue reading, plates were rinsed with PBS, 50 ul of DMEM (high glucose) without phenol red was added and plates were then used for luciferase assay using the Promega Dual-Glo Luciferase Assay System.
Compound analysis was determined by quantification of the relative HCV replicon inhibition and the relative cytotoxicity values. To calculate cytoxicity values, the average Alamar Blue fluorescence signals from the control wells were set as 100% non-toxic. The individual signals in each of the compound test wells were then divided by the average control signal and multiplied by 100% to determine […]. To calculate the HCV replicon inhibition values, an average background value was obtained from the two wells containing the highest amount of HCV protease inhibitor at the end of the assay period. These numbers were similar to those obtained from naïve Huh-7 cells.
The background numbers were then subtracted from the average signal obtained from the control wells and this number was used as 100% activity. The individual signals in each of the compound test wells were then divided by the averaged control values after background subtraction and multiplied by 100% to determine percent activity. EC50 values for a protease inhibitor titration were calculated as the concentration which caused a 50% reduction in FRET or luciferase activity. The two numbers generated for the compound plate, percent cytoxicity and percent activity were used to determine compounds of interest for further analysis.

[1] = molecular target: T1, HCV NS5B RdRp genotype 1b (Hepatitis C virus genotype 1b, UniProt Q9WMX2); experiment: Modified HCV NS5B RdRp enzyme assay (preincubation protocol); assay type: biochemical; conditions: HCV NS5B RdRp genotype 1b; preincubation protocol; read-out: IC50
T1 construct: The protein was expressed with an 18 amino acid C-terminal truncation to enhance the solubility; made in house; host or cells: E. coli BL21(DE3)
T1 sequence (Q9WMX2 2420-2992): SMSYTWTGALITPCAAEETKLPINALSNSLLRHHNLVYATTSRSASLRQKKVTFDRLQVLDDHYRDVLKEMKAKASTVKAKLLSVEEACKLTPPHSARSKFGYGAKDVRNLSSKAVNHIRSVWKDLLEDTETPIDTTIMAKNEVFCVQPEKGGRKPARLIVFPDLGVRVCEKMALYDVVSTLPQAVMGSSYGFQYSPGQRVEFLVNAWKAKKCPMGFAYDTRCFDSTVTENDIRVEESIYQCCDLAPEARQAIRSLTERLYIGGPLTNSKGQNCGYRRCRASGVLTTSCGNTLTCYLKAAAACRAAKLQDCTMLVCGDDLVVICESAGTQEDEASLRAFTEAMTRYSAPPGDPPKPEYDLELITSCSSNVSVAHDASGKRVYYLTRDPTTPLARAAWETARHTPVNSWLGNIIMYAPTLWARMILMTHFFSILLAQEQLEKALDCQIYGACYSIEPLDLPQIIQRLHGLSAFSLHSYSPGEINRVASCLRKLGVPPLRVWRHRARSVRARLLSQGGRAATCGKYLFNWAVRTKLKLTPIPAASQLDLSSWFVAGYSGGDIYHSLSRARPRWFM
Description: HCV NS5B RdRp cloning, expression, and purification. The cDNA encoding the NS5B protein of HCV, genotype 1b, was cloned into the pET21a expression vector. The protein was expressed with an 18 amino acid C-terminal truncation to enhance the solubility. The E. coli competent cell line BL21(DE3) was used for expression of the protein. Cultures were grown at 37° C. for ˜4 hours until the cultures reached an optical density of 2.0 at 600 nm. The cultures were cooled to 20° C. and induced with 1 mM IPTG. Fresh ampicillin was added to a final concentration of 50 μg/ml and the cells were grown overnight at 20° C.
Cell pellets (3 L) were lysed for purification to yield 15-24 mgs of purified NS5B. The lysis buffer consisted of 20 mM Tris-HCl, pH 7.4, 500 mM NaCl, 0.5% triton X-100, 1 mM DTT, 1 mM EDTA, 20% glycerol, 0.5 mg/ml lysozyme, 10 mM MgCl2, 15 ug/ml deoxyribonuclease I, and Complete TM protease inhibitor tablets (Roche). After addition of the lysis buffer, frozen cell pellets were resuspended using a tissue homogenizer. To reduce the viscosity of the sample, aliquots of the lysate were sonicated on ice using a microtip attached to a Branson sonicator. The sonicated lysate was centrifuged at 100,000×g for 1 hr at 4° C. and filtered through a 0.2 μm filter unit (Corning).
The protein was purified using three sequential chromatography steps: Heparin sepharose CL-6B, polyU sepharose 4B, and Hitrap SP sepharose (Pharmacia). The chromatography buffers were identical to the lysis buffer but contained no lysozyme, deoxyribonuclease I, MgCl2 or protease inhibitor and the NaCl concentration of the buffer was adjusted according to the requirements for charging the protein onto the column. Each column was eluted with a NaCl gradient which varied in length from 5-50 column volumes depending on the column type. After the final chromatography step, the resulting purity of the enzyme is >90% based on SDS-PAGE analysis. The enzyme was aliquoted and stored at −80° C.
Standard HCV NS5B RdRp enzyme assay. HCV RdRp genotype 1b assays were run in a final volume of 60 μl in 96 well plates (Costar 3912). The assay buffer is composed of 20 mM Hepes, pH 7.5, 2.5 mM KCl, 2.5 mM MgCl2, 1 mM DTT, 1.6 U RNAse inhibitor (Promega N2515), 0.1 mg/ml BSA (Promega R3961), and 2% glycerol. All compounds were serially diluted (3-fold) in DMSO and diluted further in water such that the final concentration of DMSO in the assay was 2%. HCV RdRp genotype 1b enzyme was used at a final concentration of 28 nM. A polyA template was used at 6 nM, and a biotinylated oligo-dT12 primer was used at 180 nM final concentration. Template was obtained commercially (Amersham 27-4110). Biotinylated primer was prepared by Sigma Genosys. 3H-UTP was used at 0.6 μCi (0.29 μM total UTP). Reactions were initiated by the addition of enzyme, incubated at 30° C. for 60 min, and stopped by adding 25 μl of 50 mM EDTA containing SPA beads (4 μg/μl, Amersham RPNQ 0007). Plates were read on a Packard Top Count NXT after >1 hr incubation at room temperature.
Modified HCV NS5B RdRp enzyme assay. A modified enzyme assay was performed essentially as described for the standard enzyme assay except for the following: The biotinylated oligo dT12 primer was precaptured on streptavidin-coated SPA beads by mixing primer and beads in assay buffer and incubating at room temperature for one hour. Unbound primer was removed after centrifugation. The primer-bound beads were resuspended in 20 mM Hepes buffer, pH 7.5 and used in the assay at final concentrations of 20 nM primer and 0.67 μg/μl beads. Order of addition in the assay: enzyme (14 nM) was added to diluted compound followed by the addition of a mixture of template (0.2 nM), 3H-UTP (0.6 μCi, 0.29 μM), and primer-bound beads, to initiate the reaction; concentrations given are final. Reactions were allowed to proceed for 4 hours at 30° C.
IC50 values for compounds were determined using seven different [I]. […]

Compound: COc1ccc2c(c1)C1CC1(S(=O)(=O)N1CCCC1)Cn1c-2c(C2CCCCC2)c2ccc(C(=O)NS(=O)(=O)N3CCOCC3)cc21 (stereo not shown)
- EC50 (HCV replicon cells; Hepatitis C virus): 20 to 1000 nM
- IC50 [1]: 20 to 1000 nM

Compound: CCN(C)S(=O)(=O)NC(=O)c1ccc2c(C3CCCCC3)c3n(c2c1)CC1(S(=O)(=O)N2C[C@@H](C)N(C)[C@@H](C)C2)CC1c1cc(OC)ccc1-3 (stereo partly shown)
- EC50 (HCV replicon cells; Hepatitis C virus): 20 to 1000 nM
- IC50 [1]: 20 to 1000 nM

Compound: COc1ccc2c(c1)C1CC1(S(=O)(=O)N1C[C@@H](C)N(C)[C@@H](C)C1)Cn1c-2c(C2CCCCC2)c2ccc(C(=O)NS(=O)(=O)N(C)C)cc21 (stereo partly shown)
- EC50 (HCV replicon cells; Hepatitis C virus): 20 to 1000 nM
- IC50 [1]: 20 to 1000 nM

Compound: COc1ccc2c(c1)C1CC1(S(=O)(=O)N1CCCN(C)CC1)Cn1c-2c(C2CCCCC2)c2ccc(C(=O)O)cc21 (stereo not shown)
- EC50 (HCV replicon cells; Hepatitis C virus): 20 to 1000 nM
- IC50 [1]: 20 to 1000 nM

Compound: COc1ccc2c(c1)C1CC1(S(=O)(=O)N(C)C)Cn1c-2c(C2CCCCC2)c2ccc(C(=O)O)cc21 (stereo not shown)
- EC50 (HCV replicon cells; Hepatitis C virus): 20 to 1000 nM
- IC50 [1]: 1000 to 10000 nM

Compound: COc1ccc2c(c1)C1CC1(S(=O)(=O)N1CCN3CCCC3C1)Cn1c-2c(C2CCCCC2)c2ccc(C(=O)NS(=O)(=O)N3CCOCC3)cc21 (stereo not shown) [drawing 65]
- EC50 (HCV replicon cells): 20 to 1000 nM
- IC50 [1]: 20 to 1000 nM

Compound: COc1ccc2c(c1)CC(S(=O)(=O)N1CCOCC1)Cn1c-2c(C2CCCCC2)c2ccc(C(=O)NS(=O)(=O)N(C)C)cc21 (stereo not shown)
- EC50 (HCV replicon cells; Hepatitis C virus): 20 to 1000 nM
- IC50 [1]: 20 to 1000 nM

Compound: COc1ccc2c(c1)C1CC1(S(=O)(=O)N1CCN3CCCC3C1)Cn1c-2c(C2CCCCC2)c2ccc(C(=O)NS(=O)(=O)C(C)C)cc21 (stereo not shown)
- EC50 (HCV replicon cells; Hepatitis C virus): 20 to 1000 nM
- IC50 [1]: 20 to 1000 nM

Compound: COc1ccc2c(c1)C1CC1(S(=O)(=O)N1CC[C@@H](N(C)C)C1)Cn1c-2c(C2CCCCC2)c2ccc(C(=O)NS(=O)(=O)C(C)C)cc21 (stereo partly shown)
- EC50 (HCV replicon cells; Hepatitis C virus): 20 to 1000 nM
- IC50 [1]: 20 to 1000 nM

Compound: COc1ccc2c(c1)C1CC1(S(=O)(=O)N1C[C@@H](C)N(C)[C@@H](C)C1)Cn1c-2c(C2CCCCC2)c2ccc(C(=O)NS(=O)(=O)N3CCCC3)cc21 (stereo partly shown)
- EC50 (HCV replicon cells; Hepatitis C virus): 20 to 1000 nM
- IC50 [1]: 20 to 1000 nM

Compound: CCS(=O)(=O)NC(=O)c1ccc2c(C3CCCCC3)c3n(c2c1)CC1(S(=O)(=O)N2C[C@@H](C)N(C)[C@@H](C)C2)CC1c1cc(OC)ccc1-3 (stereo partly shown)
- EC50 (HCV replicon cells; Hepatitis C virus): 20 to 1000 nM
- IC50 [1]: 20 to 1000 nM

Compound: COc1ccc2c(c1)C1CC1(S(=O)(=O)N1CCN(S(C)(=O)=O)CC1)Cn1c-2c(C2CCCCC2)c2ccc(C(=O)O)cc21 (stereo not shown)
- EC50 (HCV replicon cells; Hepatitis C virus): 1000 to 10000 nM
- IC50 [1]: 20 to 1000 nM

Compound: COC[C@@H]1CN(S(=O)(=O)C23CC2c2cc(OC)ccc2-c2c(C4CCCCC4)c4ccc(C(=O)NS(=O)(=O)N5CCOCC5)cc4n2C3)CCO1 (stereo partly shown)
- EC50 (HCV replicon cells; Hepatitis C virus): 20 to 1000 nM
- IC50 [1]: 20 to 1000 nM

Compound: COc1ccc2c(c1)C1CC1(S(=O)(=O)N1CCCN(C)CC1)Cn1c-2c(C2CCCCC2)c2ccc(C(=O)NS(=O)(=O)N(C)C)cc21 (stereo not shown)
- EC50 (HCV replicon cells; Hepatitis C virus): 20 to 1000 nM
- IC50 [1]: 20 to 1000 nM
